For the test, the system named is EA.hy926 cells. The experiment in a line: Tube-Formation Assay. The class given is cell-based. The note with it: 24 hr pre-treatment, 48-hr incubation on matrigel; FIG. 4. As for the experimental part:
Angiogenesis is the process of generating new blood vessels derived as extensions from the existing vasculature. Performance of vascular behavior or monitoring tube formation can determine whether the compound is capable of interrupting angiogenesis. In this example, whether the compound of formula (I) interrupted angiogenesis was investigated using Tube-Formation Assay.
Briefly, EA.hy926 cells were treated with various concentrations of BO-2590 for 24 hr. After that, cells (5×10^5 cells/well) were suspended in 100 μl medium containing 1% FCS and subsequently seeded onto 96-well plate pre-coated with matrigel 1 h at 37° C. After a 48-hr incubation, tube-formation ability was examined under a phase microscope.

Molecules are shown by their SMILES.

With `Cc1c(CO)c(CO)c2c3ccccc3c(N3CCC(N4CCCCC4)CC3)nn12` [BO-2590, (6-([1,4′-Bipiperidin]-1′-yl)-3-methylpyrrolo[2,1-α]phthalazine-1,2-diyl)dimethanol], the tube formation result was “markedly and dose-dependently abolished tube formation”.

Source of the values: patent US11066412B2, “Substituted pyrrolo[2,1-a]phthalazines and benzo[g]pyrrolo[2,1-a]phthalazines for the treatment of cancer” (Academia Sinica, priority 2017, dated 2021).
